Experimental data from a compilation of properties of binary mixtures (doi:10.1016/j.jct.2010.03.017).

Test: xn = mol fraction of the nth substance listed
Conditions: 101 kPa

CC[n+]1ccn(C)c1.N#C[N-]C#N + O
electrical conductivity [S/m]
Conditions	x2 = 0.2	x2 = 0.4	x2 = 0.6	x2 = 0.8
293.2 K	2.72	3.47	–	–
298.2 K	3.09	3.91	5.06	6.41
303.2 K	3.48	4.4	5.7	7.2
308.2 K	–	4.91	–	8
313.2 K	–	5.43	7.03	–
318.2 K	–	5.97	7.73	9.63
323.2 K	5.25	6.52	8.42	10.5
328.2 K	–	7.08	9.14	11.4
333.2 K	6.22	7.65	9.85	12.2
338.2 K	6.71	–	–	13.1
343.2 K	7.26	8.81	11.3	13.9
348.2 K	7.79	9.42	12	14.8
353.2 K	8.36	10	12.7	15.6

CCn1cc[n+](C)c1.COCCOCCOS(=O)(=O)[O-] + O
electrical conductivity [S/m]
Conditions	x2 = 0.2	x2 = 0.4	x2 = 0.6	x2 = 0.8
293.2 K	0.19	0.24	0.42	0.82
298.2 K	0.23	–	–	0.99
303.2 K	0.3	0.38	0.63	1.18
308.2 K	0.38	0.47	0.76	1.4
313.2 K	–	0.57	0.9	–
318.2 K	0.56	0.68	1.06	1.87
323.2 K	0.67	0.79	1.22	2.12
328.2 K	0.79	–	1.4	2.39
333.2 K	0.92	1.06	1.58	2.68
338.2 K	–	1.2	–	–
343.2 K	1.2	1.35	1.96	–
348.2 K	–	–	2.17	3.59
353.2 K	1.51	1.68	–	–
